Experimental findings from patent US20220315567A1 (priority 2016, published 2022) are described below.

Where a name gives a salt, the structure may show the parent alone. Read-outs that look alike come from different tables or passages of the source.

Data set [1] addresses T1, human OPRM1 (μ, MOR) (Homo sapiens, UniProt P35372).
T1 construct: host or cells: CHO-K1
The data set is described as follows: cell-based. The conditions noted are these: for Emax: OPRM1, read-out: cAMP Emax; for EC50: PathHunter human OPRM1 Arrestin CHO-K1 cell line, read-out: cAMP EC50. The method, then:
G-protein signaling was measured via second messenger cAMP modulation. Detection of cAMP modulation was accomplished in the PathHunter human OPRM1 (μ, MOR) Arrestin CHO-K1 cell line using the Dynamic2 cAMP Kit from Cisbio.

For data set [2], the target named is T1, human OPRM1 (μ, MOR). Kind of data set: cell-based. The settings on record: for Emax: OPRM1, read-out: β-Arrestin Emax; for EC50: PathHunter human OPRM1 Arrestin CHO-K1 cell line, read-out: β-Arrestin EC50. The method, then: The Discoverx PathHunter® β-Arrestin assay is used to measure β-arrestin-2 activity. The technology is based on Enzyme Fragment Complementation (EFC) with β-galactosidase (β-Gal) as the reporter. […] EA is fused to Q-arrestin-2, and ED is fused to the C-terminus of the GPCR of interest. When a ligand binds and the GPCR is activated, Q-arrestin-2 is recruited to the receptor resulting in an ED/EA complementation, restoring f-Gal activity, which is measured using chemiluminescence. For this assay, the PathHunter human OPRM1 (μ, MOR) Arrestin CHO-K1 cell line was used.

In data set [3] the target is T1, human OPRM1 (μ, MOR). The class given is cell-based. The settings on record: for ΔRA of compound: relative activity from EC50 and Emax of β-arrestin vs cAMP, lower RA = more G-protein biased. The method, then: In certain embodiments, the ability of a compound to activate G-protein or β-arrestin is not an on/off switch for a given pathway, but rather a continuous function. To capture this, each compound is measured for activity in cell assays that are linked to β-arrestin recruitment and G-protein signaling. By comparing the activity between these two measures (accounting for both EC50 and maximal response reached, Emax) a relative activity (RA) value is determined.
In the case of MOR it is desirable to have high activation of the G-protein pathway while reducing activation of β-arrestin. In the case of the formula above, this means a lower RA.

T1 sequence (P35372 whole entry): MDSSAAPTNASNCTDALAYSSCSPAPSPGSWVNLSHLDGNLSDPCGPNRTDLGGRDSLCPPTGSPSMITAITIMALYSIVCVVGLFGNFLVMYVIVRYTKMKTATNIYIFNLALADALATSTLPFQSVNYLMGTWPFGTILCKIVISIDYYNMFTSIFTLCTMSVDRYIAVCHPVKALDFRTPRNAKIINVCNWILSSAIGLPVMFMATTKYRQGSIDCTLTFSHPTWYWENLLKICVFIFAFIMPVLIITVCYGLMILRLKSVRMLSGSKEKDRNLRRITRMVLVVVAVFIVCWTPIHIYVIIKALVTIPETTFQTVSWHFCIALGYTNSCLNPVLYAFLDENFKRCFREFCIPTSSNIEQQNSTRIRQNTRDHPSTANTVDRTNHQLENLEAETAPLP

`CN(C)C(CNC(=O)N1Cc2ccc(O)cc2C1)c1ccsc1` (stereo not shown) (as salt: hydrobromid) [Compound 22, N-(2-(Dimethylamino)-2-(thiophen-3-yl)ethyl)-5-hydroxyisoindoline-2-carboxamide hydrobromide]: the melting point (as a rule, the temperature, or range, at which the solid turns liquid) was 134 °C (dec.).

For the compound `CN(C)C(CNC(=O)N1Cc2ccc(O)cc2C1)c1ccc(O)cc1` (stereo not shown) (as salt: hydrobromid) [Compound 24, N-(2-(dimethylamino)-2-(4-hydroxyphenyl)ethyl)-5-hydroxyisoindoline-2-carboxamide hydrobromide], the melting point was 185 °C (dec.).

On to `CN(C)C(CNC(=O)N1Cc2ccccc2C1)c1ccsc1` (stereo not shown) (as salt: hydrochloride) [Compound 1a, N-(2-(Dimethylamino)-2-(thiophen-3-yl)ethyl)isoindoline-2-carboxamide hydrochloride], for which the melting point is 145 to 150 °C (dec.).

For `CN(C)C(CNC(=O)N1Cc2cccc(F)c2C1)c1ccsc1` (stereo not shown) (as salt: hydrochloride) [Compound 3a, N-(2-(Dimethylamino)-2-(thiophen-3-yl)ethyl)-4-fluoroisoindoline-2-carboxamide hydrochloride], the melting point is 150 to 155 °C (dec.).

In the case of `CN(C)C(CNC(=O)N(C)[C@@H]1CCCc2ccccc21)c1ccsc1` (stereo partly shown) [Compound 45], on human OPRM1 (μ, MOR) [1], the maximal response (Emax) (usually the size of the effect at its maximum, as opposed to the concentration needed) was 101% and the EC50 (as a rule, the midpoint of the concentration-response curve) came out at 276 nM. In addition, at human OPRM1 (μ, MOR) [2], the maximal effect (Emax) turned out to be 8.1% and the EC50 is greater than 100000 nM. At human OPRM1 (μ, MOR) [3], the “Bias Factor (ΔRA of compound relative to ΔRA of DAMGO) × 10” value is recorded as less than −14.83 and the ΔRA of compound is less than −2.96.

As to `CN(C)C1(CNC(=O)N2Cc3ccc(F)cc3C2)CCCCC1` [Compound 46], on human OPRM1 (μ, MOR) [1], the Emax was determined as 109% and the 50% effective concentration (EC50) was 522 nM. Also, at human OPRM1 (μ, MOR) [2], the Emax amounted to 13.6% and the half-maximal effective concentration (EC50) came to 10100 nM. Besides, on human OPRM1 (μ, MOR) [3], the “Bias Factor (ΔRA of compound relative to ΔRA of DAMGO) × 10” value is −7.08 and the ΔRA of compound is recorded as −2.19.

On to `CN(C)C(CNC(=O)N1CCCc2ccc(O)cc21)c1ccsc1` (stereo not shown) [Compound 49], for which, at human OPRM1 (μ, MOR) [1], the maximal response (Emax) turned out to be 97% and the EC50 came out at 998 nM. Further, at human OPRM1 (μ, MOR) [2], the Emax is less than 1% and the concentration giving a half-maximal response (EC50) is greater than 100000 nM. Moreover, on human OPRM1 (μ, MOR) [3], the “Bias Factor (ΔRA of compound relative to ΔRA of DAMGO) × 10” value is on record as less than −14.83 and the ΔRA of compound was less than −2.96.

For `CN(C)C(CNC(=O)N[C@@H]1CCc2ccc(O)cc2C1)c1ccsc1` (stereo partly shown) [Compound 50], at human OPRM1 (μ, MOR) [1], the Emax worked out at 48.3% and the EC50 was found to be 36 nM. Further, on human OPRM1 (μ, MOR) [2], the maximum response (Emax) was less than 1% and the EC50 was greater than 100000 nM. Further, on human OPRM1 (μ, MOR) [3], the “Bias Factor (ΔRA of compound relative to ΔRA of DAMGO) × 10” value is on record as less than −14.83 and the ΔRA of compound is less than −2.96.

For the compound `CN(C)C(CNC(=O)N[C@H]1CCc2ccccc2C1)c1ccsc1` (stereo partly shown) [Compound 51], on human OPRM1 (μ, MOR) [1], the “cAMP Emax” value was determined as 64.9% and the EC50 was determined as 29 nM. Besides, on human OPRM1 (μ, MOR) [2], the “β-Arrestin Emax” value is less than 1% and the EC50 was greater than 100000 nM. At human OPRM1 (μ, MOR) [3], the “Bias Factor (ΔRA of compound relative to ΔRA of DAMGO) × 10” value was less than −14.83 and the ΔRA of compound is reported as less than −2.96.

As for `CN(C)C(CNC(=O)N[C@H]1CCc2ccccc2C1)c1ccsc1` (stereo partly shown) [Compound 52], at human OPRM1 (μ, MOR) [1], the “cAMP Emax” value amounted to 12.2% and the 50% effective concentration (EC50) came to 227 nM. Besides, on human OPRM1 (μ, MOR) [2], the “β-Arrestin Emax” value was less than 1% and the EC50 was greater than 100000 nM. For the same compound, at human OPRM1 (μ, MOR) [3], the “Bias Factor (ΔRA of compound relative to ΔRA of DAMGO) × 10” value is given as less than −14.83 and the ΔRA of compound is given as less than −2.96.

In the case of `CN(C)C(CNC(=O)NC1CCCc2c(O)cccc21)c1ccsc1` (stereo not shown) [Compound 59], at human OPRM1 (μ, MOR) [1], the Emax is 108% and the concentration giving a half-maximal response (EC50) stood at 6 nM. Besides, on human OPRM1 (μ, MOR) [2], the Emax stood at 61% and the half-maximal effective concentration (EC50) was 160 nM. Besides, at human OPRM1 (μ, MOR) [3], the “Bias Factor (ΔRA of compound relative to ΔRA of DAMGO) × 10” value was −1.95 and the ΔRA of compound was −1.67.

As to `CN(C)C(CNC(=O)N[C@H]1CCc2ccc(O)cc2C1)c1ccsc1` (stereo partly shown) [Compound 60], on human OPRM1 (μ, MOR) [1], the Emax was determined as 27.5% and the EC50 came out at 676 nM. On human OPRM1 (μ, MOR) [2], the Emax was less than 1% and the half-maximal effective concentration (EC50) was greater than 100000 nM. Besides, at human OPRM1 (μ, MOR) [3], the “Bias Factor (ΔRA of compound relative to ΔRA of DAMGO) × 10” value was less than −14.83 and the ΔRA of compound is given as less than −2.96.
